Source: ChEMBL document CHEMBL1759962, “Anti-inflammatory effect of soyasaponins through suppressing nitric oxide production in LPS-stimulated RAW 264.7 cells by attenuation of NF-κB-mediated nitric oxide synthase expression” (Bioorg Med Chem Lett, 2011)
Active and inactive are the calls of the source. The rule behind the calls is not given here.

Legend:
[1] = biological target: T1, Nitric oxide synthase, inducible (Mus musculus) (UniProt P29477); test: Inhibition of iNOS-mediated nitric oxide production in LPS-stimulated mouse RAW264.7 cells at 10 ug/ml measured after 24 hrs by Griess reaction method; format: cell-based
T1 sequence (whole entry): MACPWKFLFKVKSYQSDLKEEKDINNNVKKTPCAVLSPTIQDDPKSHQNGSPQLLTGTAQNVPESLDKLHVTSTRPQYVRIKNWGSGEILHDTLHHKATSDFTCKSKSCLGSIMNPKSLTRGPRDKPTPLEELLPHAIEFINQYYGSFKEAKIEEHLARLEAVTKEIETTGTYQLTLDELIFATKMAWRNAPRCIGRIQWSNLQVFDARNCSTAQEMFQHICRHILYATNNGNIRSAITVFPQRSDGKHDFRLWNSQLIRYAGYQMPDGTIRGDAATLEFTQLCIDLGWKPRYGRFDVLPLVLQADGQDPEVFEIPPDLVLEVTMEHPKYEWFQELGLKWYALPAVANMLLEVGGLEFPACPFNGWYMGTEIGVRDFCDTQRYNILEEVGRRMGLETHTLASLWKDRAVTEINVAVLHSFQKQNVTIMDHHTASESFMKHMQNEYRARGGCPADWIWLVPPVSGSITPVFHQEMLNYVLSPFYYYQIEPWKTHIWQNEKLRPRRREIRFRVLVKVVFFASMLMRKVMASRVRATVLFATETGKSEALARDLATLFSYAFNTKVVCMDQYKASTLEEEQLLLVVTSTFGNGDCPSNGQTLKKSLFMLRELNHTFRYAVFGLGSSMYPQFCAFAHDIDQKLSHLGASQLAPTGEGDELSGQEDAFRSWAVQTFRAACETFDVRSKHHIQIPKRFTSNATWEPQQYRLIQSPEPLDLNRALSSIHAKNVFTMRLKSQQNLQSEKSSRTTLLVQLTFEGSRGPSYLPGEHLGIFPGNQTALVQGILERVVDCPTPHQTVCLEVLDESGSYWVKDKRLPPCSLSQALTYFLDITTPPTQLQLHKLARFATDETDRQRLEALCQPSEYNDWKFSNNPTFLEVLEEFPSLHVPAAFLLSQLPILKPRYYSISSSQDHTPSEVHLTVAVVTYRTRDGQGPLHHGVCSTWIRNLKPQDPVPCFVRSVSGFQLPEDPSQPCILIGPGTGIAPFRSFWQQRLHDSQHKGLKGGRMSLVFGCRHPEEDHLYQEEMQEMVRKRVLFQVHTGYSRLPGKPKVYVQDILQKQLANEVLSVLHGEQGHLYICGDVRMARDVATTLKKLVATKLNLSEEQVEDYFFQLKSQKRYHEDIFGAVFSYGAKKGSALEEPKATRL

[2] = biological target: T1, Nitric oxide synthase, inducible (Mus musculus); test: Inhibition of iNOS activity in LPS-stimulated mouse RAW264.7 cells assessed as conversion of L-[…] arginine to L-[3H] citruline per mg of protein at 10 ug/ml after 24 hrs; format: cell-based
RAW264.7 [3] = test: Antiinflammatory activity in mouse RAW264.7 cells assessed as inhibition of LPS-induced IL-1 release by ELISA; format: functional, cell-based
RAW264.7 [4] = test: Inhibition of iNOS mRNA expression in LPS-stimulated mouse RAW264.7 cells at 25 ug/ml after 24 hrs by real time fluorescent quantitative real time PCR relative to negative control; format: functional
RAW264.7 [5] = test: Inhibition of iNOS mRNA expression in LPS-stimulated mouse RAW264.7 cells at 50 ug/ml after 24 hrs by real time fluorescent quantitative real time PCR relative to negative control; format: functional
[6] = biological target: T1, Nitric oxide synthase, inducible (Mus musculus); test: Inhibition of iNOS activity in LPS-stimulated mouse RAW264.7 cells assessed as conversion of L-[…] arginine to L-[3H] citruline per mg of protein at 100 ug/ml after 24 hrs; format: cell-based
RAW264.7 [7] = test: Inhibition of iNOS mRNA expression in LPS-stimulated mouse RAW264.7 cells at 200 ug/ml after 24 hrs by real time fluorescent quantitative real time PCR relative to negative control; format: functional
[8] = biological target: T1, Nitric oxide synthase, inducible (Mus musculus); test: Inhibition of iNOS-mediated nitric oxide production in LPS-stimulated mouse RAW264.7 cells at 25 to 200 ug/ml measured after 24 hrs by Griess reaction method; format: cell-based
RAW264.7 [9] = test: Cytotoxicity against mouse RAW264.7 cells at 25 to 200 ug/ml after 24 hrs by MTT assay; format: cell-based; details: raw264.7, 24 h
RAW264.7 [10] = test: Antiinflammatory activity in mouse RAW264.7 cells assessed as inhibition of LPS-induced IL-6 release by ELISA; format: functional, cell-based
[11] = biological target: T1, Nitric oxide synthase, inducible (Mus musculus); test: Inhibition of iNOS activity in LPS-stimulated mouse RAW264.7 cells assessed as conversion of L-[…] arginine to L-[3H] citruline per mg of protein at 200 ug/ml after 24 hrs; format: cell-based
RAW264.7 [12] = test: Antiinflammatory activity in mouse RAW264.7 cells assessed as inhibition of LPS-induced TNFalpha release by ELISA; format: functional, cell-based
RAW264.7 [13] = test: Inhibition of iNOS mRNA expression in LPS-stimulated mouse RAW264.7 cells at 100 ug/ml after 24 hrs by real time fluorescent quantitative real time PCR relative to negative control; format: functional
[14] = biological target: T1, Nitric oxide synthase, inducible (Mus musculus); test: Inhibition of iNOS activity in LPS-stimulated mouse RAW264.7 cells assessed as conversion of L-[…] arginine to L-[3H] citruline per mg of protein at 50 ug/ml after 24 hrs; format: cell-based
[15] = biological target: T1, Nitric oxide synthase, inducible (Mus musculus); test: Inhibition of iNOS activity in LPS-stimulated mouse RAW264.7 cells assessed as conversion of L-[…] arginine to L-[3H] citruline per mg of protein at 25 ug/ml after 24 hrs; format: cell-based
[16] = biological target: T1, Nitric oxide synthase, inducible (Mus musculus); test: Inhibition of iNOS-mediated nitric oxide production in LPS-stimulated mouse RAW264.7 cells measured after 24 hrs by Griess reaction method; format: cell-based
[17] = biological target: T1, Nitric oxide synthase, inducible (Mus musculus); test: Inhibition of iNOS activity in LPS-stimulated mouse RAW264.7 cells assessed as conversion of L-[…] arginine to L-[3H] citruline per mg of protein after 24 hrs; format: cell-based
RAW264.7 [18] = test: Inhibition of LPS-induced NF-kappaB activation in mouse RAW264.7 cells expressing pNF-kappaB-LUC at 25 to 200 ug/ml after 24 hrs by luciferase reporter gene assay relative to unstimulated cells; format: cell-based

With N=C(N)NN the inhibition [1] was “inactive” and the Activity [2] was 2.7 pmol/min.

With CC1(C)C[C@H]2C3=CC[C@@H]4[C@@]5(C)CC[C@H](O)[C@](C)(CO)[C@@H]5CC[C@@]4(C)[C@]3(C)CC[C@@]2(C)[C@H](O)[C@@H]1O [SOYASAPOGENOL A] the inhibition (RAW264.7 [3]) was “inactive”, the “fold change (FC)” value (RAW264.7 [4]) was 15.1 and the “fold change (FC)” value (RAW264.7 [5]) was 15. For the same compound, the Activity [6] was 26.9 pmol/min, the “fold change (FC)” value (RAW264.7 [7]) was 15.3 and the inhibition [8] was “inactive”. For the same compound, the Activity (RAW264.7 [9]) was “Non-toxic”, the inhibition (RAW264.7 [10]) was “inactive” and the Activity [11] was 27 pmol/min. The inhibition (RAW264.7 [12]) was “inactive”, the “fold change (FC)” value (RAW264.7 [13]) was 15.1 and the Activity [14] was 27 pmol/min. For the same compound, the Activity [15] was 27.7 pmol/min.

For CC1(C)C[C@H]2C3=CC[C@@H]4[C@@]5(C)CC[C@H](O[C@@H]6O[C@H](C(=O)O)[C@@H](O)[C@H](O)[C@H]6O[C@@H]6O[C@H](CO)[C@H](O)[C@H](O)[C@H]6O[C@@H]6O[C@H](CO)[C@@H](O)[C@H](O)[C@H]6O)[C@](C)(CO)[C@@H]5CC[C@@]4(C)[C@]3(C)CC[C@@]2(C)[C@H](O[C@@H]2OC[C@H](O)[C@@H](O)[C@H]2O[C@@H]2O[C@H](CO)[C@@H](O)[C@@H](O)[C@H]2O)[C@@H]1O [SOYASAPONIN A1], the inhibition [16] was “Dose-dependent effect”, the inhibition (RAW264.7 [3]) was “inactive” and the “fold change (FC)” value (RAW264.7 [4]) was 11.6. The inhibition [17] was “Dose-dependent effect”, the “fold change (FC)” value (RAW264.7 [5]) was 11.3 and the Activity [6] was 11.4 pmol/min. The “fold change (FC)” value (RAW264.7 [7]) was 5.1, the inhibition (RAW264.7 [18]) was “Dose-dependent effect” and the Activity (RAW264.7 [9]) was “Non-toxic”. The inhibition (RAW264.7 [10]) was “inactive”, the Activity [11] was 6.2 pmol/min and the inhibition (RAW264.7 [12]) was “Active”. For the same compound, the “fold change (FC)” value (RAW264.7 [13]) was 7.5, the Activity [14] was 18.3 pmol/min and the Activity [15] was 22.3 pmol/min.

In the case of CC1(C)C[C@@H](O)[C@]2(C)CC[C@]3(C)C(=CC[C@@H]4[C@@]5(C)CC[C@H](O)[C@](C)(CO)[C@@H]5CC[C@]43C)[C@@H]2C1 [SOYASAPOGENOL B], the inhibition (RAW264.7 [3]) is reported as “inactive”, the “fold change (FC)” value (RAW264.7 [4]) is reported as 14.7 and the “fold change (FC)” value (RAW264.7 [5]) is reported as 14.8. For the same compound, the Activity [6] was 26.6 pmol/min, the “fold change (FC)” value (RAW264.7 [7]) was 15.4 and the inhibition [8] was “inactive”. For the same compound, the Activity (RAW264.7 [9]) was “Non-toxic”, the inhibition (RAW264.7 [10]) was “inactive” and the Activity [11] was 27.1 pmol/min. The inhibition (RAW264.7 [12]) was “inactive”, the “fold change (FC)” value (RAW264.7 [13]) was 14.7 and the Activity [14] was 26.5 pmol/min. For the same compound, the Activity [15] was 27.4 pmol/min.

CC1(C)C[C@H]2C3=CC[C@@H]4[C@@]5(C)CC[C@H](O[C@@H]6O[C@H](C(=O)O)[C@@H](O)[C@H](O)[C@H]6O[C@@H]6O[C@H](CO)[C@@H](O)[C@@H](O)[C@H]6O)[C@](C)(CO)[C@@H]5CC[C@@]4(C)[C@]3(C)CC[C@@]2(C)[C@H](O[C@@H]2OC[C@H](O)[C@@H](O)[C@H]2O[C@@H]2O[C@H](CO)[C@@H](O)[C@@H](O)[C@H]2O)[C@@H]1O [SOYASAPONIN A2] was tested, and the inhibition [16] was “Dose-dependent effect”, the inhibition (RAW264.7 [3]) was “inactive” and the “fold change (FC)” value (RAW264.7 [4]) was 11.4. For the same compound, the inhibition [17] was “Dose-dependent effect”, the “fold change (FC)” value (RAW264.7 [5]) was 10.7 and the Activity [6] was 14 pmol/min. For the same compound, the “fold change (FC)” value (RAW264.7 [7]) was 4.4, the inhibition (RAW264.7 [18]) was “Dose-dependent effect” and the Activity (RAW264.7 [9]) was “Non-toxic”. The inhibition (RAW264.7 [10]) was “inactive”, the Activity [11] was 9.3 pmol/min and the inhibition (RAW264.7 [12]) was “Active”. The “fold change (FC)” value (RAW264.7 [13]) was 5.7, the Activity [14] was 19 pmol/min and the Activity [15] was 23.6 pmol/min.

With C[C@@H]1O[C@@H](O[C@H]2[C@H](O[C@H]3[C@H](O[C@H]4CC[C@@]5(C)[C@@H](CC[C@]6(C)[C@@H]5CC=C5[C@@H]7CC(C)(C)C[C@@H](O)[C@]7(C)CC[C@]56C)[C@@]4(C)CO)O[C@H](C(=O)O)[C@@H](O)[C@@H]3O)O[C@H](CO)[C@H](O)[C@@H]2O)[C@H](O)[C@H](O)[C@H]1O [SOYASAPONIN I] the inhibition [16] was “Dose-dependent effect”, the inhibition (RAW264.7 [3]) was “inactive” and the “fold change (FC)” value (RAW264.7 [4]) was 11.1. The inhibition [17] was “Dose-dependent effect”, the “fold change (FC)” value (RAW264.7 [5]) was 8.8 and the Activity [6] was 11.7 pmol/min. For the same compound, the “fold change (FC)” value (RAW264.7 [7]) was 5.6, the inhibition (RAW264.7 [18]) was “Dose-dependent effect” and the Activity (RAW264.7 [9]) was “Non-toxic”. The inhibition (RAW264.7 [10]) was “inactive”, the Activity [11] was 9.2 pmol/min and the inhibition (RAW264.7 [12]) was “Active”. The “fold change (FC)” value (RAW264.7 [13]) was 6.8, the Activity [14] was 16.6 pmol/min and the Activity [15] was 24 pmol/min.
